In patent publication US3962316A, “Carbamate” (priority 1972, dated 1976):

Assays:
Type in all cases: in vivo
[1] = test system: houseflies (Musca domestica); conditions: after 4 hours
Excerpt: 1 mm^3 of an acetonic solution of the active ingredients is applied to the ventral abdomen of houseflies (Musca domestica) under slight CO2 narcosis.

[2] = test system: oriental cockroaches (Blatta orientalis); assay: Contact with treated inner surfaces of 1 liter glass beakers, adult oriental cockroaches
Experimental: Adult oriental cockroaches (Blatta orientalis) are placed in 1 liter glass beakers whose inner surfaces have been treated with acetonic solutions of the active ingredients. The action is determined after 48 hours.

[3] = test system: caterpillars of the cabbage moth (Plutella maculipennis); assay: Contact action and effect of ingested food on caterpillars of the cabbage moth (dipped cabbage leaves); conditions: for Mortality (in words): 0.1% by weight of ingredient in aqueous emulsion
Excerpt: Contact action and effect of ingested food on caterpillars of the cabbage moth (Plutella maculipennis). Young cabbage leaves are dipped for 3 seconds into aqueous emulsions of the active ingredients. After they have dried they are put into Petri dishes and caterpillars of the cabbage moth are placed on them.

CNC(=O)Oc1ccccc1OC(CCl)OC (stereo not drawn) [Active ingredient 1, o-(α-methoxy-β-chloro)-ethoxyphenyl-N-methylcarbamate]
LD50 [1]: 0.41 γ/fly | mortality at 0.05 mg ([2]; 48 h): 100% | mortality at 0.05 % ([3]; Plutella): 100%

CNC(=O)Oc1ccccc1OC(C)C [III]
LD50 [1]: 1.5 γ/fly | Mortality (in words) [3]: ineffective

CNC(=O)Oc1cccc(C)c1 [II]
Effect on flies (LD50 column, in words) ([1]; 10.0 γ/fly): ineffective | mortality at 0.5 mg ([2]; 0.5 mg/breaker, after 48 hours): 100% | Mortality (in words) [3]: ineffective

CNC(=O)Oc1cccc2ccccc12 [I]
mortality at 0.2 mg ([2]; 48 h): 100% | mortality at 0.1 % ([3]; Plutella): 100%

CCOC(CCl)Oc1ccccc1OC(=O)NC (stereo not drawn) [compound 6]
mortality at 0.02 % ([3]; Plutella): 100%

o-(α-2-chloroethoxy)-ethoxyphenyl-N-methylcarbamate [Example 2]
LD50 [1]: 0.3 γ/fly
